The values below are quoted from earlier work in patent US7666858B2, “Pharmaceutical composition for treatment of phimosis using topical corticosteroid” (Apsen Farmaceutica S.A., priority 2000, dated 2010).

The structures appear in SMILES notation.

The conditions of data set [1]: Lindhagen 1996.

For `C[C@H]1C[C@H]2[C@@H]3CCC4=CC(=O)C=C[C@]4(C)[C@@]3(F)[C@@H](O)C[C@]2(C)[C@@]1(O)C(=O)CO` [Betamethasone], for the setting “alcohol”, the solubility in alcohol result was “partially alcohol-soluble”. Also, the solubility in water entry (water) is recorded as “water-insoluble”.

As to `CCC(=O)O[C@]1(C(=O)CCl)[C@@H](C)C[C@H]2[C@@H]3CCC4=CC(=O)C=C[C@]4(C)[C@@]3(F)[C@@H](O)C[C@@]21C` [clobetasol propionate], the success in data set [1] is listed as 70%.
